# Data from ChEMBL document CHEMBL4346704, “Novel symmetric bis-benzimidazoles: Synthesis, DNA/RNA binding and antitrypanosomal activity” (Eur J Med Chem, 2019).
# Active and inactive are the calls of the source. No cut-off for these calls is given here.
# How the values were obtained:
# L6 = assay: Cytotoxicity against rat L6 cells incubated for 6 days by resazurin based fluorescence assay; assay type: cell-based; settings: L6, 144 h
# Trypanosoma brucei = assay: Antitrypanosomal activity against Trypanosoma brucei 221 incubated for 48 hrs by resazurin based fluorescence assay; assay type: functional, organism-based; settings: Trypanosoma brucei, 221, 48 h
# [1] = Binding affinity to polyA-polyU dsRNA (unknown origin) assessed as change in melting temperature at 0.1 ratio of compound to RNA by spectrophotometric analysis; assay type: nucleic-acid assay
# [2] = test system: Poly(dA-dU)oligonucleotide; assay: (§1) Binding affinity to polyA-polyU dsRNA (unknown origin) assessed as binding constant by UV-vis spectrophotometric method; assay type: nucleic-acid assay
# [3] = test system: Poly(dA-dU)oligonucleotide; assay: Binding affinity to polyA-polyU dsRNA (unknown origin) assessed as change in melting temperature at 0.5 ratio of compound to RNA by spectrophotometric analysis; assay type: nucleic-acid assay
# [4] = Binding affinity to polyA-polyU dsRNA (unknown origin) assessed as hypochromic effect by UV-vis spectrophotometric method relative to control; assay type: nucleic-acid assay; set-up: concentration or dose not given beside the values
# [5] = Ratio of compound concentration to polynucleotide phosphate concentration for binding affinity to polyA-polyU dsRNA (unknown origin); assay type: nucleic-acid assay
# Calf thymus DNA [6] = assay: Binding affinity to calf thymus DNA assessed as change in melting temperature at compound to calf thymus DNA polynucleotide ratio of 0.3 by spectrophotometric analysis; assay type: nucleic-acid assay; settings: Bos taurus
# Calf thymus DNA [7] = assay: Ratio of compound concentration to polynucleotide phosphate concentration for binding affinity to calf thymus DNA; assay type: nucleic-acid assay; settings: Bos taurus
# Calf thymus DNA [8] = assay: Binding affinity to calf thymus DNA assessed as change in melting temperature at compound to calf thymus DNA polynucleotide ratio of 0.5 by spectrophotometric analysis; assay type: nucleic-acid assay; settings: Bos taurus
# Calf thymus DNA [9] = assay: Binding affinity to calf thymus DNA assessed as hypochromic effect by UV-vis spectrophotometric method relative to control; assay type: nucleic-acid assay; set-up: concentration or dose not given beside the values; settings: Bos taurus
# Calf thymus DNA [10] = assay: Binding affinity to calf thymus DNA assessed as change in melting temperature at compound to calf thymus DNA polynucleotide ratio of 0.1 by spectrophotometric analysis; assay type: nucleic-acid assay; settings: Bos taurus
# [11] = test system: Poly(dA-dU)oligonucleotide; assay: Binding affinity to polyA-polyU dsRNA (unknown origin) assessed as conformational change by circular dichroism analysis; assay type: nucleic-acid assay
# [12] = test system: Poly(dA-dU)oligonucleotide; assay: Binding affinity to polyA-polyU dsRNA (unknown origin) assessed as change in melting temperature at 0.3 ratio of compound to RNA by spectrophotometric analysis; assay type: nucleic-acid assay
# Calf thymus DNA [13] = assay: Binding affinity to calf thymus DNA by UV-vis spectrophotometric method; assay type: nucleic-acid assay; settings: Bos taurus
# Calf thymus DNA [14] = assay: Binding affinity to calf thymus DNA assessed as conformational change by circular dichroism analysis; assay type: nucleic-acid assay; settings: Bos taurus
# [15] = as §1; assay type: nucleic-acid assay
Structure (SMILES),IC50 (L6) [µM],IC50 (Trypanosoma brucei) [µM],IC90 (Trypanosoma brucei) [µM],ΔTm [1] [°C],log Ks [2],ΔTm [3] [°C],Activity [4] [%],Ratio [5],ΔTm (Calf thymus DNA [6]) [°C],Ratio (Calf thymus DNA [7]),ΔTm (Calf thymus DNA [8]) [°C],Activity (Calf thymus DNA [9]) [%],ΔTm (Calf thymus DNA [10]) [°C],Activity [11],ΔTm [12] [°C],log Ks (Calf thymus DNA [13]),Activity (Calf thymus DNA [14]),Activity [15],Activity (Calf thymus DNA [13])
Cl.Cl.c1cc2[nH]c(-c3ccc(Cn4cc(CCCc5cn(Cc6ccc(-c7nc8cc(C9=NCCN9)ccc8[nH]7)o6)nn5)nn4)o3)nc2cc1C1=NCCN1,216,3.9,5.4,1.6,6.83,2.7,32,0.42,13.8,0.05,19.1,17,13.5,Active,1.8,7.62,Active,,
CC(C)NC(=N)c1ccc2[nH]c(-c3ccc(Cn4cc(COc5ccc(-c6ccc(OCc7cn(Cc8ccc(-c9nc%10cc(C(=N)NC(C)C)ccc%10[nH]9)o8)nn7)cc6)cc5)nn4)o3)nc2c1,,> 10,,,,,< 5,,2.1,,,8,,Active,0,,Active,,
CC(C)NC(=N)c1ccc2[nH]c(-c3ccc(Cn4cc(CCCc5cn(Cc6ccc(-c7nc8cc(C(=N)NC(C)C)ccc8[nH]7)o6)nn5)nn4)o3)nc2c1.Cl.Cl,104,5.1,8.2,0.9,5.69,0.8,32,0.58,14.5,0.09,14.8,24,13.8,,0.5,6.33,Active,,
CC(C)NC(=N)c1ccc2[nH]c(-c3ccc(Cn4cc(COc5ccc(OCc6cn(Cc7ccc(-c8nc9cc(C(=N)NC(C)C)ccc9[nH]8)o7)nn6)cc5)nn4)o3)nc2c1.Cl.Cl,121,1.5,2.8,0,,0,11,,11,,12.2,23,8,Active,0,,Active,Active,Active
Cl.Cl.N=C(N)c1ccc2[nH]c(-c3ccc(Cn4cc(COc5ccc(OCc6cn(Cc7ccc(-c8nc9cc(C(=N)N)ccc9[nH]8)o7)nn6)cc5)nn4)o3)nc2c1,39.6,1.3,5.6,0,,0,7,,10.7,,12.3,9,9.5,Active,0,,Active,Active,Active
Cl.Cl.N=C(N)c1ccc2[nH]c(-c3ccc(Cn4cc(COCc5cn(Cc6ccc(-c7nc8cc(C(=N)N)ccc8[nH]7)o6)nn5)nn4)o3)nc2c1,88.6,3.3,4.7,2.2,6.65,3.3,24,0.43,10.4,0.47,12.5,37,9.2,,3.5,5.93,Active,,
c1cc(-c2ccc(OCc3cn(Cc4ccc(-c5nc6cc(C7=NCCN7)ccc6[nH]5)o4)nn3)cc2)ccc1OCc1cn(Cc2ccc(-c3nc4cc(C5=NCCN5)ccc4[nH]3)o2)nn1,,> 10,,,,,8,,2.6,,,9,,Active,0,,Active,,
Fc1ccc2[nH]c(-c3ccc(Cn4cc(COc5ccc(-c6ccc(OCc7cn(Cc8ccc(-c9nc%10cc(F)ccc%10[nH]9)o8)nn7)cc6)cc5)nn4)o3)nc2c1,,> 15,,,,,23,,0,0.21,,16,,,0,4 to 5,inactive,Active,
Clc1ccc2[nH]c(-c3ccc(Cn4cc(CCCc5cn(Cc6ccc(-c7nc8cc(Cl)ccc8[nH]7)o6)nn5)nn4)o3)nc2c1,> 300,3,7.2,0,< 4,0,34,0.5,4.1,0.05,2.5,27,2.1,,0,7.04,inactive,,
Cl.Cl.c1cc2[nH]c(-c3ccc(Cn4cc(COCc5cn(Cc6ccc(-c7nc8cc(C9=NCCN9)ccc8[nH]7)o6)nn5)nn4)o3)nc2cc1C1=NCCN1,122,3.8,6,3.5,7.17,,22,0.85,12.7,0.89,12.5,28,12.4,Active,4,6.23,Active,,
Cl.Cl.N=C(N)c1ccc2[nH]c(-c3ccc(Cn4cc(CCCc5cn(Cc6ccc(-c7nc8cc(C(=N)N)ccc8[nH]7)o6)nn5)nn4)o3)nc2c1,198,3.6,5.5,1.5,5.7,9.3,46,0.3,13,0.05,13.8,13,13.6,,0.6,6.61,Active,,
Cl.Cl.c1cc(OCc2cn(Cc3ccc(-c4nc5cc(C6=NCCN6)ccc5[nH]4)o3)nn2)ccc1OCc1cn(Cc2ccc(-c3nc4cc(C5=NCCN5)ccc4[nH]3)o2)nn1,60.7,0.75,1.5,2.7,,0,11,,8.9,,0,6,8.2,Active,2.2,,Active,Active,Active
N=C(N)c1ccc2[nH]c(-c3ccc(Cn4cc(COc5ccc(-c6ccc(OCc7cn(Cc8ccc(-c9nc%10cc(C(=N)N)ccc%10[nH]9)o8)nn7)cc6)cc5)nn4)o3)nc2c1,,> 10,,,,,< 5,,,,,8,,Active,0.9,,Active,,
